Blank lines part the entries; values can stand above or below the compound they belong to.
What was measured:
[1] = target: T1, Menin (Homo sapiens, UniProt O00255); experiment: Displacement of FITC-MBM1 from full length human menin measured after 1 hr by fluorescence polarization assay
T1 sequence (O00255 whole entry): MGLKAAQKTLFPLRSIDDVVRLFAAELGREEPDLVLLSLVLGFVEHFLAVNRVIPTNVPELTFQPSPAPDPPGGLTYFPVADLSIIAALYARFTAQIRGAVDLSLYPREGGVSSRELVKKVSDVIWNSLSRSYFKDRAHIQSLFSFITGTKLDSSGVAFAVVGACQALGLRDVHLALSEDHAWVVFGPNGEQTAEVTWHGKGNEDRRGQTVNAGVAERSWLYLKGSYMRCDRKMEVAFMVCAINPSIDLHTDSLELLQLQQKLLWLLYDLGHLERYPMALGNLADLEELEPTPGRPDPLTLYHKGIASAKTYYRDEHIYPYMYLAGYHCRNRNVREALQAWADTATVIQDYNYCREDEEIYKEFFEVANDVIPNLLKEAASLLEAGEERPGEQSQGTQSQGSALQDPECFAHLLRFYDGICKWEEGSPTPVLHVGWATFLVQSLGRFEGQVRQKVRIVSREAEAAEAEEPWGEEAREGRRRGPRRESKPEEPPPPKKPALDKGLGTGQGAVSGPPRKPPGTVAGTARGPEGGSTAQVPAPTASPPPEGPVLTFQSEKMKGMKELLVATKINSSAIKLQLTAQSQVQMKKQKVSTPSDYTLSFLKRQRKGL

[2] = target: T1, Menin; experiment: Binding affinity to menin (unknown origin) by isothermal titration calorimetry
[3] = target: Histone-lysine N-methyltransferase 2A (Homo sapiens, UniProt Q03164); experiment: Inhibition of MLL1 binding to N-terminal His-tagged […] 23 deletion mutant (24 to 334 residues) (unknown origin) expressed in Escherichia coli Rosetta 2 (DE3) pLysS cells by fluorescence polarization assay
[4] = target: T1, Menin
Description: Displacement of FITC-MBM1 from menin (unknown origin) measured after 1 hr by fluorescence polarization assay

[5] = target: T1, Menin; experiment: Displacement of FITC-MBM1 from full length human menin measured after 2 hrs by fluorescence polarization assay

Histone-lysine N-methyltransferase 2A, sequence (Q03164 1-2718 limits assumed, stated change not applied): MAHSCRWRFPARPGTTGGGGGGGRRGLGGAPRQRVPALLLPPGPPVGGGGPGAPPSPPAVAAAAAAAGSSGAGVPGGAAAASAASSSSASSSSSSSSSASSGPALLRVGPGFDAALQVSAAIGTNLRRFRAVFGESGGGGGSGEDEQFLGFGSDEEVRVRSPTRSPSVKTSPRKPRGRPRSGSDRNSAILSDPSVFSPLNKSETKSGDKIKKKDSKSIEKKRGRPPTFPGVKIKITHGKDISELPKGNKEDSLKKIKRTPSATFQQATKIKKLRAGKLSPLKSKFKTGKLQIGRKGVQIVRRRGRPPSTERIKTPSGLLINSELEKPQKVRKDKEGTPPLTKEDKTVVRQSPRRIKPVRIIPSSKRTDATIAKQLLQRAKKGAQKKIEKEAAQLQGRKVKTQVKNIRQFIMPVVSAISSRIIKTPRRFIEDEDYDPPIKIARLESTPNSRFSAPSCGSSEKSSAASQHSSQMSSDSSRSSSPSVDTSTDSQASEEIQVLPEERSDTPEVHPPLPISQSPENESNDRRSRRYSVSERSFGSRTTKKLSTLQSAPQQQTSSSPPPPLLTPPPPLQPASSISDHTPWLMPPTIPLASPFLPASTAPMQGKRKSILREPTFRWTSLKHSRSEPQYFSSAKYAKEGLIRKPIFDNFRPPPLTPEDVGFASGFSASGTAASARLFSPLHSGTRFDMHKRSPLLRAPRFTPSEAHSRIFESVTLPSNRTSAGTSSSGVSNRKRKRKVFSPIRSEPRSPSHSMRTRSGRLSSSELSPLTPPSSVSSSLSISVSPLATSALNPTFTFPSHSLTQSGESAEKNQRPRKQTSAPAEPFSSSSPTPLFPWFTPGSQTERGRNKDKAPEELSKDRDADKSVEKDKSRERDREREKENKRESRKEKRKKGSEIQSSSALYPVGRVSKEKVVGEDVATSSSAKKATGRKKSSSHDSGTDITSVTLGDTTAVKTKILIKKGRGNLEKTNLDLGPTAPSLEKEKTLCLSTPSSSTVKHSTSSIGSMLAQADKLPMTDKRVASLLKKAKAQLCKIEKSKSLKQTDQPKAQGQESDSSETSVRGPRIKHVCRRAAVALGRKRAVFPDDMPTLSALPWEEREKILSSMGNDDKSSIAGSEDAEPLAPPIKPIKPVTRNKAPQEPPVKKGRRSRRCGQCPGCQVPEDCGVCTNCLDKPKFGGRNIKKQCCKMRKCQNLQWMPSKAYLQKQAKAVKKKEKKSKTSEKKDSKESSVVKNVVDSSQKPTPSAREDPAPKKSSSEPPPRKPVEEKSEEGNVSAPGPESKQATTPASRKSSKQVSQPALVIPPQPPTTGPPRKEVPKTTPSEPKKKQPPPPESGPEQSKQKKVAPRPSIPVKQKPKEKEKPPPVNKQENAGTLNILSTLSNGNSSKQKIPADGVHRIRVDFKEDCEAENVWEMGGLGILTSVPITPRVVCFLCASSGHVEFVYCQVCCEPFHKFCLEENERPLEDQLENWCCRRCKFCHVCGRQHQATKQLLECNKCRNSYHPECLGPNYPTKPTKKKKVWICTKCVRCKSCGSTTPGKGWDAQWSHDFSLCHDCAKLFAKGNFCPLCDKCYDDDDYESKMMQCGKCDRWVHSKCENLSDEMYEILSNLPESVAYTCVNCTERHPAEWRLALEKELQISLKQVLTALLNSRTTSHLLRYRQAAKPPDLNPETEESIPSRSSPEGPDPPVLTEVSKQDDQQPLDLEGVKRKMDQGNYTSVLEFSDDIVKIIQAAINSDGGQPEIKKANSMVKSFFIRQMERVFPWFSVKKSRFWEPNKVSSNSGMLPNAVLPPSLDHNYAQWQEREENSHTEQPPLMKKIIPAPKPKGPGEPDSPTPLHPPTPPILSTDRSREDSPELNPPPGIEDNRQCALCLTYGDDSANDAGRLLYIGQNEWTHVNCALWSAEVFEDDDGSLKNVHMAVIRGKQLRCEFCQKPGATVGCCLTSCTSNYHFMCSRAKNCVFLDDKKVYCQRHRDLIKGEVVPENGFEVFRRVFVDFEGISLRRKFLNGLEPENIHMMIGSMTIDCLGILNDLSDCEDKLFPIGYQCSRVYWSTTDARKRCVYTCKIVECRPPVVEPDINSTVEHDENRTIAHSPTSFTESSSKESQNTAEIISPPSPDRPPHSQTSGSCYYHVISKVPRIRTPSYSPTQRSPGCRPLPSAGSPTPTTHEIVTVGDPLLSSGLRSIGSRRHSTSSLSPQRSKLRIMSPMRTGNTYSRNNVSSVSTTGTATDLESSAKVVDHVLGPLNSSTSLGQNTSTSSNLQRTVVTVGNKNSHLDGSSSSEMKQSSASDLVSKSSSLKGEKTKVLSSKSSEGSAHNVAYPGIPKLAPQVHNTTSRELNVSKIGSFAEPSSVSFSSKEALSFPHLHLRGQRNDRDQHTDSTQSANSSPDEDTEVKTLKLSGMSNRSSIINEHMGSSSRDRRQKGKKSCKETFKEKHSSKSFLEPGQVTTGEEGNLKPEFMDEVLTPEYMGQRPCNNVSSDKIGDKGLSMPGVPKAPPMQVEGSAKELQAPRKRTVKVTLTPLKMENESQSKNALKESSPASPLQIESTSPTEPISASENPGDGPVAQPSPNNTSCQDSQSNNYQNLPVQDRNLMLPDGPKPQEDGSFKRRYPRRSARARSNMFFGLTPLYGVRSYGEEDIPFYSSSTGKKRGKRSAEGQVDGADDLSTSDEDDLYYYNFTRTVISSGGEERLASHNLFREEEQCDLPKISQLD
Histone-lysine N-methyltransferase 2A, sequence (Q03164 2719-3969 limits assumed, stated change not applied): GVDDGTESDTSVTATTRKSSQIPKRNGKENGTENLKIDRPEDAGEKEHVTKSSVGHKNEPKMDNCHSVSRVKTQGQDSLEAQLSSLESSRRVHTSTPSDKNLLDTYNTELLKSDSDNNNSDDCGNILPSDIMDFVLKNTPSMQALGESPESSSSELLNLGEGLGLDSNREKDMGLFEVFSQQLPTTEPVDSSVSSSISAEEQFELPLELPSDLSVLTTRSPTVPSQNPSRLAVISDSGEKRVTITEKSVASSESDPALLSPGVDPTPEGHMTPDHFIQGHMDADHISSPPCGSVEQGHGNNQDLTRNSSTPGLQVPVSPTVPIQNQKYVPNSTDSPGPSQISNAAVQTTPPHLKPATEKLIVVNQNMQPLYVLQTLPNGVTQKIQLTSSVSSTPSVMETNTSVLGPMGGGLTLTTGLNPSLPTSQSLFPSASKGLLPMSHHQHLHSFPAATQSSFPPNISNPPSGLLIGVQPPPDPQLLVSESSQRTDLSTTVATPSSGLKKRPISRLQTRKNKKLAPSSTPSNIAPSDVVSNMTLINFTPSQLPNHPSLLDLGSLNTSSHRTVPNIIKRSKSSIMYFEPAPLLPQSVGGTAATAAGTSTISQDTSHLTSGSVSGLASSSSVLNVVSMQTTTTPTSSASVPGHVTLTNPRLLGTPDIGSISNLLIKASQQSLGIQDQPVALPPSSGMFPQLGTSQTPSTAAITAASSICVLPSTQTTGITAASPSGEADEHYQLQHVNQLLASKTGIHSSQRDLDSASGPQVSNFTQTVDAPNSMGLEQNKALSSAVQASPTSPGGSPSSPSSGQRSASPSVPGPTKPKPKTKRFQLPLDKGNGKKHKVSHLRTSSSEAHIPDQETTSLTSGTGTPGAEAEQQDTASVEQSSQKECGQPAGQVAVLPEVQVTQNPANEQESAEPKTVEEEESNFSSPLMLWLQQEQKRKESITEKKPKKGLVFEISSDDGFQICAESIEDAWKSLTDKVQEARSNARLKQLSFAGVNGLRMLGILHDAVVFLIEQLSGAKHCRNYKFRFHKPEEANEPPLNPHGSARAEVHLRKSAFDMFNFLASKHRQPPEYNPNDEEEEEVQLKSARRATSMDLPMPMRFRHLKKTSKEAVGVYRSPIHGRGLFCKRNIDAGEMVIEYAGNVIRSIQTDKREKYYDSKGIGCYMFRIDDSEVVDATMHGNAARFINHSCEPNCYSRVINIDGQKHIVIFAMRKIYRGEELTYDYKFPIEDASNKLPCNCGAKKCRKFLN

IC50 [1]: 14.7 nM | Kd [2]: 9.3 nM
Compound: Cc1c(CN2CCC(Nc3ncnc4sc(CC(F)(F)F)cc34)CC2)ccc2c1cc(C#N)n2Cc1cn[nH]c1

IC50 [4]: 1 nM
Compound: O=c1cccc2n1[C@@H]1C[C@H](C2)CN(CC(O)CCCc2ccccc2)C1 (stereo partly drawn)

The remaining lines, values behind:

Compound: CCC(CC)(NC(=O)C(C)C)C(=O)N[C@@H](CCCNC(=N)N)C(=O)NC1(C(=O)NC(c2ccc(Cl)cc2)c2ccc(Cl)cc2)CCCC1
IC50 [3]: 4.5 nM | Ki [3]: < 1 nM

Compound: NCC(CCN1CC=C(c2ccc(Cl)cc2)CC1)(c1ccccc1)C1CCCC1 (stereo not drawn)
IC50 [5]: 830 nM | Ki [5]: 80 nM

Compound: CN(C)C(=O)C(CCN1CCC(O)(c2ccc(Cl)cc2)CC1)(c1ccccc1)c1ccccc1 [LOPERAMIDE]
IC50 [5]: 69000 nM

From ChEMBL document CHEMBL4184186, “Targeting protein-protein interaction between MLL1 and reciprocal proteins for leukemia therapy” (Bioorg Med Chem, 2018)
